Measured values as given in PubChem BioAssay AID2060326 (Molecular Pharmacology Branch, DTP, NCI, 2025).

Test system: MDA-MB-468 multi-cell spheroids, viability
Test: Anticancer human tumor MDA-MB-468 cell line growth inhibition [IpAb];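 further: spheroids exposed to agents for seven days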;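 on viability, T/C: 100% = DMSO vehicle control viability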
Conditions: for IC50: curve of first compound; for viability, T/C: stronger effect = lower value
Procedure, shortened: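 Multi-cell spheroids of 60% tumour cells, 25% HUVEC and 15% MSC in ultra-low-attachment U-bottom wells, treated with agents combined with ipatasertib or abemaciclib. Half-log ranges top out near clinical Cmax, or 10 microM when Cmax is unknown.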

For `CC(=O)c1c(C)c2cnc(Nc3ccc(N4CCNCC4)cn3)nc2n(C2CCCC2)c1=O` + CC(C)NCC(C(=O)N1CCN(c2ncnc3c2C(C)CC3O)CC1)c1ccc(Cl)cc1, the IC50 (second compound 0.1 µM) was > 300 nM, the IC50 (second compound 0.316 µM) was > 300 nM and the IC50 (second compound 1 µM) was 4.44 nM. The IC50 (second compound 3.16 µM) was < 0.949 nM, the IC50 (second compound 10 µM) was < 0.949 nM and the viability, T/C (second compound 0.1 µM, first compound 0.000949 µM) was 87.4%. For the same compound, the viability, T/C (second compound 0.1 µM, first compound 0.003 µM) was 80.3%, the viability, T/C (second compound 0.1 µM, first compound 0.00949 µM) was 73.1% and the viability, T/C (second compound 0.1 µM, first compound 0.03 µM) was 81%. It also gave a viability, T/C (second compound 0.1 µM, first compound 0.0949 µM) of 71.4%, a viability, T/C (second compound 0.1 µM, first compound 0.3 µM) of 77.8% and a viability, T/C (second compound 0.316 µM, first compound 0.000949 µM) of 66.1%. It also gave a viability, T/C (second compound 0.316 µM, first compound 0.003 µM) of 61%, a viability, T/C (second compound 0.316 µM, first compound 0.00949 µM) of 57.4% and a viability, T/C (second compound 0.316 µM, first compound 0.03 µM) of 54.8%. The viability, T/C (second compound 0.316 µM, first compound 0.0949 µM) was 59.5%, the viability, T/C (second compound 0.316 µM, first compound 0.3 µM) was 59.5% and the viability, T/C (second compound 1 µM, first compound 0.000949 µM) was 57.9%. The viability, T/C (second compound 1 µM, first compound 0.003 µM) was 51.8%, the viability, T/C (second compound 1 µM, first compound 0.00949 µM) was 46.4% and the viability, T/C (second compound 1 µM, first compound 0.03 µM) was 48.1%. For the same compound, the viability, T/C (second compound 1 µM, first compound 0.0949 µM) was 49.6%, the viability, T/C (second compound 1 µM, first compound 0.3 µM) was 48.3% and the viability, T/C (second compound 3.16 µM, first compound 0.000949 µM) was 35.9%. For the same compound, the viability, T/C (second compound 3.16 µM, first compound 0.003 µM) was 36.4%, the viability, T/C (second compound 3.16 µM, first compound 0.00949 µM) was 31.9% and the viability, T/C (second compound 3.16 µM, first compound 0.03 µM) was 32.7%. For the same compound, the viability, T/C (second compound 3.16 µM, first compound 0.0949 µM) was 29.5%, the viability, T/C (second compound 3.16 µM, first compound 0.3 µM) was 29.8% and the viability, T/C (second compound 10 µM, first compound 0.000949 µM) was 18.6%. It also gave a viability, T/C (second compound 10 µM, first compound 0.003 µM) of 19.3%, a viability, T/C (second compound 10 µM, first compound 0.00949 µM) of 19.9% and a viability, T/C (second compound 10 µM, first compound 0.03 µM) of 17.5%. The viability, T/C (second compound 10 µM, first compound 0.0949 µM) was 17.3% and the viability, T/C (second compound 10 µM, first compound 0.3 µM) was 17.6%.
